Data: patent US20240343710A1, “HETEROCYCLIC COMPOUNDS AND METHODS OF USE THEREOF” (1cBio, Inc., priority 2023, published 2024)
Counter-ions that a name gives are not always drawn. Like-named read-outs stand apart in the source and are kept apart here.

Columns and labels:
recombinant human PARP1 = recombinant human PARP1 (Homo sapiens, UniProt P09874); test: PARP1 fluorescence polarization binding assay; settings: GST-tagged PARP1 20 nM, PARP1-FL probe 3 nM
Outline: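 GST-tagged human PARP1 (20 nM final) preincubated 30 min at RT with compound (10-point 3-fold series or single concentration). PARP1-FL probe (3 nM final) added, then 4 h at RT. Buffer: 50 mM Tris pH 8.0, 10 mM MgCl2, 150 mM NaCl, 0.001% Triton X-100. FP mP values normalized to controls; IC50 from four-parameter fit.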

recombinant human PARP2 = recombinant human PARP2 (Homo sapiens, UniProt Q9UGN5); test: PARP2 fluorescence polarization binding assay; settings: read-out: PARP2 % inh at 10 μM
[1] = test system: DLD-1 BRCA2(−/−) colorectal adenocarcinoma cells; test: Cell viability assay (Cell Titer-Glo, 7 days), DLD-1 BRCA2(−/−); type: cell-based; settings: Homo sapiens, 168 h, DLD-1 BRCA2(−/−) cells
[2] = test system: DLD-1 wild-type colorectal adenocarcinoma cells; test: Cell viability assay (Cell Titer-Glo, 7 days), DLD-1 wild-type; type: cell-based; settings: Homo sapiens, 168 h, DLD-1 wild-type cells, read-out: DLD-1 wild-type % inh at 10 μM
[3] = percent inhibition at 10 μM, fluorescence polarization, GST-tagged PARP2 20 nM, PARP1-FL probe 3 nM

Chain of recombinant human PARP2 (Q9UGN5 whole entry): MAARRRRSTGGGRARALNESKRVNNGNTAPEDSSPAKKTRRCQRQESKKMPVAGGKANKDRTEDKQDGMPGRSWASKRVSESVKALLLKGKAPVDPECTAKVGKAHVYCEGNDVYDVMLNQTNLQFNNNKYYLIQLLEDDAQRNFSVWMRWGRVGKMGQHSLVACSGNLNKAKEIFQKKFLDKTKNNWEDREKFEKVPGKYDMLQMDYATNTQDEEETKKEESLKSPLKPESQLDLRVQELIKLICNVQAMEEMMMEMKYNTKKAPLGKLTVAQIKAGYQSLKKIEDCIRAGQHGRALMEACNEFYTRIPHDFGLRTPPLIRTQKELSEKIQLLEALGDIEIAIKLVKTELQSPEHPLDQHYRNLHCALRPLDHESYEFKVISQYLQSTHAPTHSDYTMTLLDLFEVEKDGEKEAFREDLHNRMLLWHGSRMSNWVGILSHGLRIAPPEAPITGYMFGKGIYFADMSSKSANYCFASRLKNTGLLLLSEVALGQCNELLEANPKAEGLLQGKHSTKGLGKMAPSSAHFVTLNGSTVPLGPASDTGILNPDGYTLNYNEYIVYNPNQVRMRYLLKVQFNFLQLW
Chain of recombinant human PARP1 (P09874 whole entry): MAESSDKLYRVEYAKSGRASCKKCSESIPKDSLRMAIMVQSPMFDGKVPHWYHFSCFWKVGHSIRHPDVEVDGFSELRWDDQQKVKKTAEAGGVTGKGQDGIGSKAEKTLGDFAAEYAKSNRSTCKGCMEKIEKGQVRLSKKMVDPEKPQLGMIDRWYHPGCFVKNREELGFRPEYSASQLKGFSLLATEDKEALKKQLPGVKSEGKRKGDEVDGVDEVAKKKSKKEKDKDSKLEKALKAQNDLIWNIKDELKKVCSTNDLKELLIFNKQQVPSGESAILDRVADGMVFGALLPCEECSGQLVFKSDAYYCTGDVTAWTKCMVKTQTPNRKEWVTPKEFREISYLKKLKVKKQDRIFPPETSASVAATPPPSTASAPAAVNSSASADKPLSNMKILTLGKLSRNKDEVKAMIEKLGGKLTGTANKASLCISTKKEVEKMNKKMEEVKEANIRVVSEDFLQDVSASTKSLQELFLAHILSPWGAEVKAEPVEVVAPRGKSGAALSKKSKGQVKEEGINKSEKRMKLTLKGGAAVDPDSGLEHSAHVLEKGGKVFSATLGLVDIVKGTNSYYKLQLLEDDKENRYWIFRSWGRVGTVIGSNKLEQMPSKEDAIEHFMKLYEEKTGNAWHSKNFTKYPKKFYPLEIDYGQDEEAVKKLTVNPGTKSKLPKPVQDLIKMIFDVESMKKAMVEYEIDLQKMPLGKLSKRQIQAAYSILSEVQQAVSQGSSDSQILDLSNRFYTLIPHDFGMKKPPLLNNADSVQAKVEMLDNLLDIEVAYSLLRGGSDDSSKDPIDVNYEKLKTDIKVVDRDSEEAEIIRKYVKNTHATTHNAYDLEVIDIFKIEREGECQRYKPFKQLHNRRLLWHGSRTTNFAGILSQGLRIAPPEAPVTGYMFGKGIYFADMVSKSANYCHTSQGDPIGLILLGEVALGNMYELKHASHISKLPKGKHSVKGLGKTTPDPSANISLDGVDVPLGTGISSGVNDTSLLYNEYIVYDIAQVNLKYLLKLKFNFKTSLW

SMILES	IC50 (recombinant human PARP1) [µM]	inhibition at 10 µM (recombinant human PARP2; [3]) [%]	IC50 [1] [µM]	inhibition at 10 µM [2] [%]	inhibition at 10 µM (recombinant human PARP2) [%]
CCNC(=O)Nc1cc(CN2CCN(c3ccc(C(F)(F)F)cn3)CC2)ccn1 [Compound 273, 1-ethyl-3-(4-((4-(5-(trifluoromethyl)pyridin-2-yl)piperazin-1-yl)methyl)pyridin-2-yl) urea]	< 0.1	< 33	≥ 3	< 33	
[2H]C([2H])([2H])c1nc(C(=O)NC)ccc1N1CCN(Cc2ccnc(NC(=O)NCC)c2)CC1 [Compound 274, 5-(4-((2-(3-ethylureido)pyridin-4-yl)methyl)piperazin-1-yl)-N-methyl-6-(methyl-d3) picolinamide hemiformate]	< 0.1	< 33	< 0.3	< 33	
CCNC(=O)Nc1cc(CN2CCN(c3ccc(C#N)cn3)CC2)ncn1 [Compound 275, 1-(6-((4-(5-cyanopyridin-2-yl)piperazin-1-yl)methyl)pyrimidin-4-yl)-3-ethylurea]	< 0.1	< 33	< 0.3	< 33	
CCNC(=O)Nc1cc(CN2CCN(c3ccc(C#N)cc3F)CC2)ccn1 [Compound 276, 1-(4-((4-(4-cyano-2-fluorophenyl)piperazin-1-yl)methyl)pyridin-2-yl)-3-ethylurea trifluoroacetate]	< 0.1		< 0.3	< 33	< 33
CCNC(=O)Nc1ncc(CN2CCN(c3ccc(C(=O)NC)nc3C)CC2)n1C [Compound 277, 5-(4-((2-(3-ethylureido)-1-methyl-1H-imidazol-5-yl)methyl)piperazin-1-yl)-N,6-dimethylpicolinamide]	< 0.1	< 33	≥ 3	< 33	
CCNC(=O)Nc1ncnc(CN2CCN(c3ccc(C(=O)NC)nc3F)CC2)c1F [Compound 278, 5-(4-((6-(3-ethylureido)-5-fluoropyrimidin-4-yl)methyl)piperazin-1-yl)-6-fluoro-N-methylpicolinamide]	< 0.1	< 33	< 0.3	< 33	
